Laboratory results as given in patent publication EP4610269A1, “UROKINASE PLASMINOGEN ACTIVATOR SURFACE RECEPTOR (UPAR) LIGANDS FOR DIAGNOSTIC OR THERAPEUTIC USE” (3B Pharmaceuticals GmbH, priority 2024, dated 2025).
pIC50: −log10 of the molar value. Where a SMILES comes first, the peptide text is derived from it. Bridges are numbered along the chain shown (N, C = ends). [ ]: non-standard residue; d: D form. The star is where a group is joined. DOTA = O=C(O)CN1CCN(CC(=O)O)CCN(CC(=O)*)CCN(CC(=O)O)CC1; Hyp = O=C(O)[C@@H]1C[C@@H](O)CN1; NMeI = CC[C@H](C)[C@H](NC)C(=O)O; 4Pal = N[C@@H](Cc1ccncc1)C(=O)O; Pentanoyl(4-Me) = CC(C)CCC(=O)*; Cit = NC(=O)NCCC[C@H](N)C(=O)O; NMeNle = CCCC[C@H](NC)C(=O)O; Nva = CCC[C@H](N)C(=O)O; Pentanoyl = CCCCC(=O)*

Legend:
[1] = molecular target: T1, uPAR-expressing HEC-265 human endometrial adenocarcinoma cells (Homo sapiens, UniProt Q03405); experiment: Competitive FACS binding assay; conditions: pIC50 category of FACS binding
T1 construct: Cell surface uPAR-expressing HEC-265 human endometrial adenocarcinoma cells; host or cells: HEC-265
Procedure, shortened: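 HEC-265 cells incubated 1 h at 4 °C with 10 nM biotinylated uPAR peptide tracer plus increasing test compound, then stained with APC-streptavidin on ice. Median APC fluorescence by flow cytometry; 4PL fit gives pIC50.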

human uPAR (uPAR-Fc) = molecular target: T2, human uPAR (uPAR-Fc) (Homo sapiens, UniProt Q03405); experiment: Surface plasmon resonance (SPR) assay, single cycle kinetics; type: binding; conditions: pKD category for uPAR SPR activity assay; uPAR-Fc on Protein A-Chip, 25°C; read-out: pKD CAT (converted)
T2 construct: comprising amino acids Leu23-Arg303 according to UniProt entry Q03405.1; purchased R&D Systems 10378-UK-100
Procedure, shortened: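 uPAR-Fc (Leu23-Arg303 extracellular domains, human IgG1 Fc) captured on Protein A chip to ~2000 RU; single-cycle kinetics at 25°C in HEPES running buffer pH 7.4 with 0.1% DMSO. KD from double-referenced sensorgrams fitted to 1:1 Langmuir model, reported as pKD.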

T2 sequence (Q03405 23-303): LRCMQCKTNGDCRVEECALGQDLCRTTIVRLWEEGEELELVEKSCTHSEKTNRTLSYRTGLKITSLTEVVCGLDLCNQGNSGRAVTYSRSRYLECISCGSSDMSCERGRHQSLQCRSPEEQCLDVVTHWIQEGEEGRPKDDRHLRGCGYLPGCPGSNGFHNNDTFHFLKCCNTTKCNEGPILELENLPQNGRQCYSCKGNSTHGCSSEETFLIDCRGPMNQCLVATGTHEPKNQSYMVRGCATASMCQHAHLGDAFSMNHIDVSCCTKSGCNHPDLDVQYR
T1 sequence (Q03405 23-335): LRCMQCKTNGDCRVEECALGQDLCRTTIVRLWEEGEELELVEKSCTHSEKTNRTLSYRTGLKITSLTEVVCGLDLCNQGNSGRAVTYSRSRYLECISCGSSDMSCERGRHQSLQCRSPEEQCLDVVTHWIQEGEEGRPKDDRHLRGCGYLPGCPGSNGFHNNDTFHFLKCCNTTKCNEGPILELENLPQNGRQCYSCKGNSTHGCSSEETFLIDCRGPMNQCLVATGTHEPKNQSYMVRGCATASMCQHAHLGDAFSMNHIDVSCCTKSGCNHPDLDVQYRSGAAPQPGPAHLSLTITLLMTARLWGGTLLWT

| SMILES | pIC50 [1] | Kd (human uPAR (uPAR-Fc)) [nM] |
| --- | --- | --- |
| CC[C@H](C)[C@@H]1NC(=O)[C@@H](C)NC(=O)[C@@H]2CCCN2C(=O)[C@H](Cc2ccccc2)NC(=O)[C@H](Cc2ccc(O)cc2)NC(=O)[C@H](CCC(N)=O)NC(=O)[C@H](CCCNC(N)=O)NC(=O)[C@@H](NC(=O)CNC(C)=O)CSSC[C@@H](C(N)=O)NC(=O)[C@H](CC(C)C)NC1=O [UPAR-334, Ac-Gly-[Cys-Cit-Gln-Tyr-Phe-Pro-ala-Ile-Leu-Cys]-NH2] (Ac-GC[Cit]QYFP[dA]ILC-NH2; disulfide 2-11) | ≤ 6.90 | > 100 |
| CCCCC(=O)N[C@H]1CSSC[C@@H](C(N)=O)NC(=O)[C@H](CCC)NC(=O)[C@H]([C@@H](C)CC)NC(=O)[C@@H]2C[C@@H](O)CN2C(=O)[C@@H]2CCCN2C(=O)[C@H](Cc2ccccc2)NC(=O)[C@H](Cc2ccncc2)NC(=O)[C@H](CCCCNC(=O)CN2CCN(CC(=O)O)CCN(CC(=O)O)CCN(CC(=O)O)CC2)NC(=O)[C@H](CCCNC(N)=O)NC1=O [UPAR-336, Pent-[Cys-Cit-Lys(DOTA)-Ppa-Phe-Pro-Hyp-Ile-Nva-Cys]-NH2] (Pentanoyl-C[Cit]K(DOTA)[4Pal]FP[Hyp]I[Nva]C-NH2; disulfide 1-10) | ≥ 8.00 | < 1.58 |
| CCCCC(=O)N[C@H]1CSSC[C@@H](C(N)=O)NC(=O)[C@H](CCC)NC(=O)[C@H]([C@@H](C)CC)NC(=O)[C@@H]2C[C@@H](O)CN2C(=O)[C@H](CCCC)N(C)C(=O)[C@H](Cc2ccccc2)NC(=O)[C@H](Cc2ccc(O)cc2)NC(=O)[C@H](CCC(N)=O)NC(=O)[C@H](CCCNC(=N)N)NC1=O [UPAR-337, Pent-[Cys-Arg-Gln-Tyr-Phe-Nmb-Hyp-Ile-Nva-Cys]-NH2] (Pentanoyl-CRQYF[NMeNle][Hyp]I[Nva]C-NH2; disulfide 1-10) | ≤ 6.90 | < 1.58 |
| CC[C@H](C)[C@@H]1NC(=O)[C@@H](C)NC(=O)[C@@H]2CCCN2C(=O)[C@H](Cc2ccccc2)NC(=O)[C@H](Cc2ccc(O)cc2)NC(=O)[C@H](C)NC(=O)[C@H](CCCNC(N)=O)NC(=O)[C@@H](NC(=O)CCC(C)C)CSSC[C@@H](C(N)=O)NC(=O)[C@H](CC(C)C)NC1=O [UPAR-339, iHex-[Cys-Cit-Ala-Tyr-Phe-Pro-ala-Ile-Leu-Cys]-NH2] ({Pentanoyl(4-Me)}-C[Cit]AYFP[dA]ILC-NH2; disulfide 1-10) | ≥ 8.00 | 1.58 to 10 |
| CC[C@H](C)[C@H]1C(=O)N[C@@H](CC(C)C)C(=O)N[C@H](C(N)=O)CSSC[C@H](NC(=O)CCC(C)C)C(=O)N[C@@H](CCCNC(N)=O)C(=O)N[C@@H](CCC(N)=O)C(=O)N[C@@H](Cc2ccc(O)cc2)C(=O)N[C@@H](Cc2ccccc2)C(=O)N2CCC[C@H]2C(=O)N[C@H](C)C(=O)N1C [UPAR-340, iHex-[Cys-Cit-Gln-Tyr-Phe-Pro-ala-Nmi-Leu-Cys]-NH2] ({Pentanoyl(4-Me)}-C[Cit]QYFP[dA][NMeI]LC-NH2; disulfide 1-10) | ≤ 6.90 | 10 to 100 |
| CC[C@H](C)[C@@H]1NC(=O)[C@H](C)NC(=O)[C@@H]2CCCN2C(=O)[C@H](Cc2ccccc2)NC(=O)[C@H](Cc2ccc(O)cc2)NC(=O)[C@H](CCSC)NC(=O)[C@H](CCCNC(=N)N)NC(=O)[C@@H](NC(=O)[C@H](CC(C)C)NC(=O)[C@H](CC(=O)O)NC(C)=O)CSSC[C@@H](C(N)=O)NC(=O)[C@H](CC(C)C)NC1=O [UPAR-341, Ac-Asp-Leu-[Cys-Arg-Met-Tyr-Phe-Pro-Ala-Ile-Leu-Cys]-NH2] (Ac-DLCRMYFPAILC-NH2; disulfide 3-12) | ≥ 8.00 | < 1.58 |
| CCCCC(=O)N[C@H]1CSSC[C@@H](C(N)=O)NC(=O)[C@H](CCC)NC(=O)[C@H]([C@@H](C)CC)NC(=O)[C@@H]2C[C@@H](O)CN2C(=O)[C@@H]2CCCN2C(=O)[C@H](Cc2ccccc2)NC(=O)[C@H](Cc2ccc(O)cc2)NC(=O)[C@H](CCCCNC(=O)CN2CCN(CC(=O)O)CCN(CC(=O)O)CCN(CC(=O)O)CC2)NC(=O)[C@H](CO)NC1=O [UPAR-342, Pent-[Cys-Ser-Lys(DOTA)-Tyr-Phe-Pro-Hyp-Ile-Nva-Cys]-NH2] (Pentanoyl-CSK(DOTA)YFP[Hyp]I[Nva]C-NH2; disulfide 1-10) | ≥ 8.00 | < 1.58 |
| CC[C@H](C)[C@@H]1NC(=O)[C@@H](C)NC(=O)[C@@H]2CCCN2C(=O)[C@H](Cc2ccc(O)cc2)NC(=O)[C@H](Cc2ccc(O)cc2)NC(=O)[C@H](CCC(N)=O)NC(=O)[C@H](CCCNC(N)=O)NC(=O)[C@@H](NC(=O)CCC(C)C)CSSC[C@@H](C(N)=O)NC(=O)[C@H](CC(C)C)NC1=O [UPAR-343, iHex-[Cys-Cit-Gln-Tyr-Tyr-Pro-ala-Ile-Leu-Cys]-NH2] ({Pentanoyl(4-Me)}-C[Cit]QYYP[dA]ILC-NH2; disulfide 1-10) | 7.50 to 7.90 | 10 to 100 |
